{
  "source": "patent US4968455A",
  "about": "“Tris(triorganotin) esters of trimeric fatty acids” (Schering Aktiengesellschaft, priority 1984, dated 1990)",
  "key": {"[1]": {"system": "Bacillus subtilis", "test": "Overlay test, zones of inhibition, Bacillus subtilis", "format": "cell-based", "details": "two days at 37° C."}, "[2]": {"test": "Water solubility in tap water (one week stirring, chloroform extraction, tin by atomic absorption spectroscopy)", "format": "physicochemical", "details": "products of Examples 1 and 2 based on 100%, 10080 min", "description": "1 g of the substance to be tested was mixed in a beaker with 1 liter of tap water by stirring for one week. After settling and decanting, the organotin compounds dissolved in the water were extracted with chloroform. The tin concentrations were determined by atomic absorption spectroscopy."}, "[3]": {"system": "Bacillus mesentericus", "test": "Overlay test, zones of inhibition, Bacillus mesentericus", "format": "cell-based", "details": "two days at 37° C."}, "[4]": {"test": "Thermal stability, one hour treatment at 180° C. in open glass vessels", "format": "physicochemical", "details": "tributyltin content not determinable", "description": "After prior methylation, the content of tributyltin compounds after a one hour treatment at 180° C. in open glass vessels was determined by gas chromatography."}, "[5]": {"system": "Proteus vulgaris", "test": "Overlay test, zones of inhibition, Proteus vulgaris", "format": "cell-based", "details": "two days at 37° C."}, "[6]": {"test": "Evaporation behavior: weight loss after one week storage in a circulating-air dryer at 65° C.", "format": "physicochemical", "details": "products of Examples 1 and 2 based on 100%", "description": "(§1) Weight losses were determined after one week storage in a circulating-air dryer at 65° C. and tests with a thermobalance (onset of weight loss, and weight loss at 350° C.) were performed.\n(§2) The exact initial weight of the specimens (about 2 g) in glass Petri dishes (about 10 cm in diameter) is determined and the weight loss after treatment is determined by reweighing."}, "[7]": {"test": "Evaporation behavior: thermobalance tests", "format": "physicochemical", "details": "products of Examples 1 and 2 based on 100%", "description": "as §1, §2"}, "[8]": {"details": "0.10 wt. % tin (impregnating solution: TBTO 0.25; TBTL, TBTN 0.5; Ex. 1 1.0; Ex. 2 1.1 wt. %)"}, "[9]": {"details": "0.16 wt. % tin (impregnating solution: TBTO 0.4; TBTL, TBTN 0.8; Ex. 1 1.65; Ex. 2 1.7 wt. %)"}, "[10]": {"details": "0.24 wt. % tin (impregnating solution: TBTO 0.6; TBTL, TBTN 1.2; Ex. 1 2.45; Ex. 2 2.6 wt. %)"}, "[11]": {"details": "0.40 wt. % tin (impregnating solution: TBTO 1.0; TBTL, TBTN 2.0; Ex. 1 4.1; Ex. 2 4.3 wt. %)"}},
  "data": [
    {"compound": "CCC[CH2][Sn]([CH2]CCC)([CH2]CCC)[O][Sn]([CH2]CCC)([CH2]CCC)[CH2]CCC", "note": "[TBTO, tri-n-butyltin oxide]", "values": [
      {"measurement": "Zones of inhibition about the specimens, Bacillus subtilis", "setting": "[1]; [8]", "result": 6, "unit": "cm^2"},
      {"measurement": "Zones of inhibition about the specimens, Bacillus subtilis", "setting": "[1]; [9]", "result": 13, "unit": "cm^2"},
      {"measurement": "Zones of inhibition about the specimens, Bacillus subtilis", "setting": "[1]; [10]", "result": 18, "unit": "cm^2"},
      {"measurement": "Zones of inhibition about the specimens, Bacillus subtilis", "setting": "[1]; [11]", "result": 20, "unit": "cm^2"},
      {"measurement": "Water solubility", "setting": "[2]", "result": "24.0 mg/liter of water"},
      {"measurement": "Zones of inhibition about the specimens, Bacillus mesentericus", "setting": "[3]; [8]", "result": 5, "unit": "cm^2"},
      {"measurement": "Zones of inhibition about the specimens, Bacillus mesentericus", "setting": "[3]; [9]", "result": 8, "unit": "cm^2"},
      {"measurement": "Zones of inhibition about the specimens, Bacillus mesentericus", "setting": "[3]; [10]", "result": 14, "unit": "cm^2"},
      {"measurement": "Zones of inhibition about the specimens, Bacillus mesentericus", "setting": "[3]; [11]", "result": 20, "unit": "cm^2"},
      {"measurement": "weight loss (1 hour at 180° C.)", "setting": "[4]", "result": 98, "unit": "%"},
      {"measurement": "Zones of inhibition about the specimens, Proteus vulgaris", "setting": "[5]; [8]", "result": 3, "unit": "cm^2"},
      {"measurement": "Zones of inhibition about the specimens, Proteus vulgaris", "setting": "[5]; [9]", "result": 6, "unit": "cm^2"},
      {"measurement": "Zones of inhibition about the specimens, Proteus vulgaris", "setting": "[5]; [10]", "result": 9, "unit": "cm^2"},
      {"measurement": "Zones of inhibition about the specimens, Proteus vulgaris", "setting": "[5]; [11]", "result": 12, "unit": "cm^2"},
      {"measurement": "Weight loss after 7 days at 65° C.", "setting": "[6]", "result": 27.3, "unit": "%"},
      {"measurement": "Thermobalance: Weight loss at 350° C.", "setting": "[7]; 350° C.", "result": 80, "unit": "%"},
      {"measurement": "Thermobalance: Onset of weight loss", "setting": "[7]", "result": 75, "unit": "°C"}
    ]}
  ]
}
